From patent publication US8741955B2, “D-serine transporter inhibitors as pharmaceutical compositions for the treatment of central nervous system disorders” (Allergan, Inc., priority 2011, dated 2014)

How the values were obtained:
[1] = system: rat hippocampal astrocytes; assay: [3H]D-serine transport into primary cultures of rat hippocampal astrocytes; format: cell-based; conditions: Astrocyte; inhibition of [3H]D-serine transport, rat hippocampal astrocytes; means of at least two determinations
[2] = system: amphetamine-induced hyperlocomotion in mice; assay: amphetamine induced hyperactivity; format: in vivo; conditions: systemic administration, amphetamine 2 mg/kg s.c.
Procedure: C57B/6 male mice (n=5-10/group) were placed in an open field apparatus and their activity was measured for 30 minutes. At 30 minutes, they received a vehicle injection or injection of test compound followed by an injection of amphetamine (2 mg/kg, s.c.) at minute 45. Their activity levels were subsequently measured for another 1 hour post-injection. Total activity for each 5 minute bin (21 total bins) was added to establish the activity curve over the 105 minute testing.

[3] = system: long-term potentiation (LTP) in the primary visual cortex; assay: long term potentiation in primary visual cortex slices; parameters: species or system rat
Procedure: Long Term Potentiation (LTP) in primary visual cortex has been used as a cellular model for visual cortex plasticity and has functional consequences on visual evoked responses. NMDA receptors play a critical role in visual cortex LTP induction.
Following decapitation of the rat, the brain was rapidly removed and immersed in ice-cold artificial cerebrospinal fluid (ACSF) containing 124 mM NaCl, 3 mM KCl, 1.25 mM KH2PO4, 3.4 mM CaCl2, 2.5 mM MgSO4, 26 mM NaHCO3, and 10 mM D-glucose. A block of visual cortex was created by removing the frontal ⅔ portion of the brain and the cerebellum. Coronal visual cortex slices of 375 μm were prepared from adult Sprague Dawley (SD) rats using a vibratome (VT 1000 S; Leica). The slices were maintained in an interface recording chamber perfused with preheated ACSF. Slices were continuously perfused with this solution at a rate of 1.00-1.50 ml/min while the surface of the slices was exposed to warm, humidified 95% O2/5% CO2 and maintained at 31±1° C. Visual cortex slices were allowed to recover for 1 hr before recording began. […] This was repeated 2 additional times with a 1 minute intertrain interval, and the level of LTP was recorded for at least 30 min. Changes in amplitude of the synaptic response were used to measure the extent of LTP because it was determined to be the more consistent parameter than the slope of the response. […]

| IC50 [1] [mM] | Structure (SMILES) | effect on amphetamine-induced hyperactivity/hyperlocomotion [2] | effect on LTP with D-AAO in the perfusion medium ([3]; 0.2 unit/ml DAAO) | effect on LTP evoked by theta burst stimulation in visual cortex slice ([3]; rat visual cortex slice) |
| --- | --- | --- | --- | --- |
| 1.58 | N[C@H](CO)C(=O)O [D-serine] | – | – | – |
| – | N[C@H](C(=O)O)c1ccc(O)cc1 [L-4-hydroxyphenylglycine] | reduced amphetamine-induced hyperactivity in a dose-dependent manner | completely prevented | enhanced LTP in a concentration-dependent manner |
